# Experimental data: publication PMC7885310 (3 Biotech, 2021)
# Tested on: Gram-positive and Gram-negative bacteria
# Experiment: In vitro antibacterial assay, pooled statement over all tested strains
# Assay type: cell-based, S. aureus, B. subtilis, S. typhi, E. coli
row,SMILES,MIC
1,"O=c1c(O)c(-c2ccc(O)cc2)oc2cc(O)cc(O)c12 [Compound 3, kaempferol]",> 100 µg/mL
2,"O=c1c(O)c(-c2ccc(O)c(O)c2)oc2cc(O)cc(O)c12 [Compound 1, quercetin]",0.0692 to 0.151 µM
